Laboratory results published in US5773413A, “Method of combating mammalian neoplasias, and lytic peptides therefor” (Demeter Biotechnologies, Ltd., priority 1995, dated 1998).
Where a SMILES comes first, the peptide text is derived from it. [ ]: non-standard residue; d: D form. The star is where a group is joined. NMe2Phe = CN(C)[C@@H](Cc1ccccc1)C(=O)*; Lys(Me2) = CN(C)CCCC[C@H](N)C(=O)O

Assays:
[1] = ALD evaluation, iv administration in rat; assay type: in vivo; settings: for [μM] T = 0, lethal concentration: first value of the cell, assigned to rat iv because it fits μmol Riv; for μg/dose (Riv), lethal dose / μmol Riv, lethal dose: iv administration in rat; for Lethality, verification dosing: 10.0 μM, one naive animal
Experimental: (§1) In the following description, Riv=iv administration in rat, Rim=intramuscular administration in rat, Miv=iv administration in mouse, and Mim=intramuscular administration in mouse.
(§2) Lethality data and clinical observations were collected during the ALD evalution of the peptides denoted D5-F, DP-1, DP-1m. The data presented below are complete for D5-F and DP-1.
(§3) For all three compounds, two replicates were performed with both mice and rats. In the first replicate, the animals (one animal/dose) were exposed to a range of doses, 10.0, 5.0, 2.5, 1.0, 0.5, 0.25, 0.1, 0.05, 0.025, and 0.01 μM. For the second replicate, the lethal dose was diluted to produce an intermediate dose between the lethal dose and the subsequent nonlethal dose.
Replicate2: For all compounds, the high dose was diluted to 7.5 μM for the second replicate. The doses administered were 7.5, 5.0, 2.5, 1.0, 0.5. 0.25, and 0.1 μM. D5F, DP1, and DP1m were lethal at 7.5 μM and were not lethal at the lower doses.
The lethality of the high dose was verified by dosing one animal with the lethal dose determined by Replicate 1. The rats used for the evaluation were remaining from the original shipment and were naive for treatment. The doses were the following: D5F, 10.0 μM; DP1, 10.0 μM; and DP1m, 10.0 μM.

[2] = ALD evaluation, intramuscular administration in rat; assay type: in vivo
Experimental: as §1, §2
For D5F and DP1, two replicates were performed with rats. In the first replicate, the animals (one animal/dose) were exposed to a range of doses; 10.0, 1.0, 0.1, and 0.01 μM. The dose range used was smaller than that originally planned due to the availability of the compound to prepare an adequate amount of dosing solution.

[3] = ALD evaluation, iv administration in mouse; assay type: in vivo; settings: for μg/dose (Miv), lethal dose / μmol Miv, lethal dose: iv administration in mouse; for Lethality, verification dosing / Lethality: mice; for Lethality, verification dosing: one animal previously exposed to 0.01 μM; for [μM] T = 0, lethal concentration: second value of the cell (single value for D5-F), assigned to mouse iv because it fits μmol Miv
Experimental: as §1, §2, §3
Replicate 2: For D5F and DP1, the high dose was diluted to 7.5 μM for the second replicate. The doses administered were 7.5, 5.0, 1.0, 0.5, 0.25, 0.1, 0.05, 0.025, and 0.01 μM. D5F was lethal at 7.5 μM, whereas DP1 was not. DP1m was again not lethal to the mice over the treatment levels delivered.
The effects of the highest dose (lethal--D5F and DP1, nonlethal--DP1 m) were verified by dosing one animal with the effective or highest no effect concentration used in Replicate 1. In the case of D5F, the dose of 7.5 μM was used to verify lethality observed in Replicate 2. The mice treated with these compounds were previously exposed to the lowest dose 0.01 μM. The doses were the following: D5F, 7.5 μM; DP1, 10.0 μM; and DP1m, 10.0 μM.

[4] = Solubility at the concentration required for im administration; assay type: physicochemical
[5] = rats, iv, Replicate 1, lower concentrations
[6] = rats, iv, Replicate 2, lower doses (5.0 to 0.1 μM)
[7] = iv, Replicate 1, lower concentrations (5.0 to 0.01 μM)

For CC[C@H](C)[C@H](NC(=O)[C@H](C)NC(=O)[C@H](CCCNC(=N)N)NC(=O)[C@H](CC(C)C)NC(=O)CNC(=O)[C@@H](NC(=O)[C@H](C)NC(=O)[C@@H](N)Cc1ccccc1)C(C)C)C(=O)N[C@@H](CCCCN)C(=O)N[C@@H](CCCNC(=N)N)C(=O)N[C@@H](C)C(=O)N[C@@H](CC(C)C)C(=O)N[C@@H](CCCCN)C(=O)N[C@@H](CCCCN)C(=O)N[C@@H](CC(C)C)C(=O)N[C@@H](CCCNC(=N)N)C(=O)N[C@@H](CCCNC(=N)N)C(=O)NCC(=O)N[C@H](C(=O)N[C@@H](CCCNC(=N)N)C(=O)N[C@@H](CCCCN)C(=O)N[C@H](C(=O)N[C@@H](C)C(=O)N[C@@H](CCCCN)C(=O)N[C@@H](CC(=O)O)C(=O)N[C@@H](CC(C)C)C(=O)O)C(C)C)C(C)C [Peptide 16] (H-FAVGLRAIKRALKKLRRGVRKVAKDL-OH), the “[μM] T = 0, lethal concentration” value [1] was 7.5 µM, the “μg/dose (Riv), lethal dose” value [1] was 5,416.19 μg/dose and the “μmol Riv, lethal dose” value [1] was 1.5 µmol. The “Lethality, verification dosing” value ([1]; rats, iv) was “dead within four hours”, the “Clinical Observations” value ([1]; rats, iv, 2.5 and 5.0 μM, ends of tails later sloughed off) was “discoloration of the tail” and the Lethality ([1]; rats, iv, Replicate 1, 10.0 μM) was “lethal”. The Lethality [1, 5] was “No lethality”, the Lethality ([1]; rats, iv, Replicate 2, 7.5 μM) was “lethal” and the Lethality [1, 6] was “not lethal”. For the same compound, the “μg/dose (Rim), lethal dose” value [2] was “not lethal”, the “μmol Rim, lethal dose” value [2] was “not lethal” and the “μg/dose (Miv), lethal dose” value [3] was 541.62 μg/dose. For the same compound, the “μmol Miv, lethal dose” value [3] was 0.15 µmol, the “Lethality, verification dosing” value ([3]; iv, 7.5 μM) was “dead within four hours” and the Lethality ([3]; iv, Replicate 1, 10.0 μM) was “lethal”. For the same compound, the Lethality [3, 7] was “No lethality”, the Lethality ([3]; iv, Replicate 2, 7.5 μM) was “lethal” and the “[μM] T = 0, lethal concentration” value [3] was 7.5 µM.

With CC[C@H](C)[C@H](NC(=O)[C@H](CCCCN)NC(=O)[C@H](CCCNC(=N)N)NC(=O)[C@H](C)NC(=O)[C@H](CC(C)C)NC(=O)[C@H](CCCCN)NC(=O)[C@H](CCCCN)NC(=O)[C@H](CC(C)C)NC(=O)[C@H](CCCNC(=N)N)NC(=O)[C@H](CCCNC(=N)N)NC(=O)CNC(=O)[C@@H](NC(=O)[C@H](CCCNC(=N)N)NC(=O)[C@H](CCCCN)NC(=O)[C@@H](NC(=O)[C@H](C)NC(=O)[C@H](CCCNC(=N)N)NC(=O)[C@H](CCCCN)NC(=O)[C@H](CCCNC(=N)N)NC(=O)[C@@H](N)CCCCN)C(C)C)C(C)C)C(=O)N[C@@H](C)C(=O)N[C@@H](CCCNC(=N)N)C(=O)N[C@@H](CC(C)C)C(=O)NCC(=O)N[C@H](C(=O)N[C@@H](C)C(=O)N[C@@H](Cc1ccccc1)C(=O)O)C(C)C [Peptide 13] (H-KRKRAVKRVGRRLKKLARKIARLGVAF-OH) the “[μM] T = 0, lethal concentration” value [1] was 2.0 µM, the “μg/dose (Riv), lethal dose” value [1] was 1,269.78 μg/dose and the “μmol Riv, lethal dose” value [1] was 0.4 µmol. The “μg/dose (Rim), lethal dose” value [2] was “not lethal”, the “μmol Rim, lethal dose” value [2] was “not lethal” and the “μg/dose (Miv), lethal dose” value [3] was 158.72 μg/dose. For the same compound, the “μmol Miv, lethal dose” value [3] was 0.05 µmol and the “[μM] T = 0, lethal concentration” value [3] was 2.5 µM.

For CC(C)C[C@H](NC(=O)[C@H](C)NC(=O)[C@H](CCCCN(C)C)NC(=O)[C@H](CCCCN(C)C)NC(=O)[C@H](CC(C)C)NC(=O)[C@H](C)NC(=O)[C@H](CCCCN(C)C)NC(=O)[C@H](CCCCN(C)C)NC(=O)[C@H](CC(C)C)NC(=O)[C@H](CCCCN(C)C)NC(=O)[C@H](CCCCN(C)C)NC(=O)[C@H](CC(C)C)NC(=O)[C@H](C)NC(=O)[C@H](CCCCN(C)C)NC(=O)[C@H](CCCCN(C)C)NC(=O)[C@H](CC(C)C)NC(=O)[C@H](C)NC(=O)[C@H](CCCCN(C)C)NC(=O)[C@H](CC(C)C)NC(=O)[C@H](C)NC(=O)[C@H](CC(C)C)NC(=O)[C@H](C)NC(=O)[C@H](Cc1ccccc1)N(C)C)C(=O)O [Peptide 20] (NMe2Phe-ALAL[Lys(Me2)]AL[Lys(Me2)][Lys(Me2)]AL[Lys(Me2)][Lys(Me2)]L[Lys(Me2)][Lys(Me2)]AL[Lys(Me2)][Lys(Me2)]AL-OH), the “[μM] T = 0, lethal concentration” value [1] was 7.5 µM, the “μg/dose (Riv), lethal dose” value [1] was 5,139.41 μg/dose and the “μmol Riv, lethal dose” value [1] was 1.5 µmol. The “Lethality, verification dosing” value ([1]; rats, iv) was “dead within four hours”, the Lethality ([1]; rats, iv, Replicate 1, 10.0 μM) was “lethal” and the Lethality [1, 5] was “No lethality”. The Lethality ([1]; rats, iv, Replicate 2, 7.5 μM) was “lethal”, the Lethality [1, 6] was “not lethal” and the “μg/dose (Rim), lethal dose” value [2] was “not lethal”. The “μmol Rim, lethal dose” value [2] was “not lethal”, the “μg/dose (Miv), lethal dose” value [3] was 685.36 μg/dose and the “μmol Miv, lethal dose” value [3] was 0.2 µmol. The “Lethality, verification dosing” value ([3]; iv, 10.0 μM) was “dead within four hours”, the Lethality ([3]; iv, Replicate 1, 10.0 μM) was “not lethal” and the Lethality [3, 7] was “No lethality”. The Lethality ([3]; iv, Replicate 2, over the treatment levels delivered) was “not lethal”, the “Clinical Observations” value ([3]; mouse, iv, 10 μM, end of tail later sloughed off) was “discoloration of the tail” and the “[μM] T = 0, lethal concentration” value [3] was 10.0 µM. The solubility [4] was “poor solubility”.

For CC(C)C[C@H](NC(=O)[C@H](C)NC(=O)[C@H](CCCCN)NC(=O)[C@H](CCCCN)NC(=O)[C@H](CC(C)C)NC(=O)[C@H](C)NC(=O)[C@H](CCCCN)NC(=O)[C@H](CCCCN)NC(=O)[C@H](CC(C)C)NC(=O)[C@H](CCCCN)NC(=O)[C@H](CCCCN)NC(=O)[C@H](CC(C)C)NC(=O)[C@H](C)NC(=O)[C@H](CCCCN)NC(=O)[C@H](CCCCN)NC(=O)[C@H](CC(C)C)NC(=O)[C@H](C)NC(=O)[C@H](CCCCN)NC(=O)[C@H](CC(C)C)NC(=O)[C@H](C)NC(=O)[C@H](CC(C)C)NC(=O)[C@H](C)NC(=O)[C@@H](N)Cc1ccccc1)C(=O)O [Peptide 19] (H-FALALKALKKALKKLKKALKKAL-OH), the “[μM] T = 0, lethal concentration” value [1] was 7.5 µM, the “μg/dose (Riv), lethal dose” value [1] was 4,689.41 μg/dose and the “μmol Riv, lethal dose” value [1] was 1.5 µmol. For the same compound, the “Lethality, verification dosing” value ([1]; rats, iv) was “dead within four hours”, the Lethality ([1]; rats, iv, Replicate 1, 10.0 μM) was “lethal” and the Lethality [1, 5] was “No lethality”. For the same compound, the Lethality ([1]; rats, iv, Replicate 2, 7.5 μM) was “lethal”, the Lethality [1, 6] was “not lethal” and the “μg/dose (Rim), lethal dose” value [2] was “not lethal”. For the same compound, the “μmol Rim, lethal dose” value [2] was “not lethal”, the “μg/dose (Miv), lethal dose” value [3] was 625.36 μg/dose and the “μmol Miv, lethal dose” value [3] was 0.2 µmol. The “Lethality, verification dosing” value ([3]; iv, 10.0 μM) was “dead within four hours”, the Lethality ([3]; iv, Replicate 1, 10.0 μM) was “lethal” and the Lethality [3, 7] was “No lethality”. For the same compound, the “[μM] T = 0, lethal concentration” value [3] was 10.0 µM.
